The target in the test is T1, human leukocyte elastase (HLE) (Homo sapiens, UniProt P08246).
T1 sequence (P08246 30-267): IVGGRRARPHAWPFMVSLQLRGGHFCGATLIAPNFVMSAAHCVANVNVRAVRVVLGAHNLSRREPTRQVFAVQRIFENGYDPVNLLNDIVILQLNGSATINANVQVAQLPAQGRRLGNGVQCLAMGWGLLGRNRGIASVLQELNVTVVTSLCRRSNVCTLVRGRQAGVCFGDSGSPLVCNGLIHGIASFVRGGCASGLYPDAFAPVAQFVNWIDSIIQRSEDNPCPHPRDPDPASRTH
The experiment in a line: Inhibition constant Ki* of human leukocyte elastase (HLE), calculated as koff/kon. The class given is biochemical. To be noted: unit inferred.

Procedure: Thus, instead of measuring a Ki, a Ki * is calculated which is defined as the ratio of the koff /kon, the rate of reactivation of the enzyme to the rate of inactivation of the enzyme. The values of koff and kon are measured and Ki * is then calculated.
The rate of inactivation, kon, of enzymatic activity was determined for the compounds tested by measuring the enzyme activity of an aliquot of the respective enzyme as a function of time after addition of the test compound. […] The rate of inactivation is then equal to [formula] where [I] is the concentration of the inhibiting compound.
The reactivation constant, koff, is similarly determined, and the inhibition constant, Ki *, is then calculated as

The term Ki denotes the dissociation constant of the complex between target and ligand, obtained from inhibition or displacement. As for `CCOP(=O)(OCC)OCN1C(=O)c2c(C(C)C)cc(OC)cc2S1(=O)=O` [Example 13], the Ki is 0.035 nM.

Values taken from patent US5296496A, “2-saccharinylmethyl phosphates, phosphonates and phosphinates useful as proteolytic enzyme inhibitors and compositions and method of use thereof” (Sterling Winthrop Inc., priority 1992, dated 1994).
